Test results from ChEMBL document CHEMBL3045022, “The discovery of potential cyclin A/CDK2 inhibitors: a combination of 3D QSAR pharmacophore modeling, virtual screening, and molecular docking studies” (Med Chem Res, 2013).

Biological target: Cyclin-dependent kinase 2/cyclin A (Homo sapiens, UniProt P24941)
Assay: Inhibition of CDK2/cyclinA (unknown origin)
Type: protein-complex assay

IC50 [µM]	SMILES
0.019	O=Nc1cnc(Nc2ccc(S(=O)(=O)Nc3nccs3)cc2)nc1OCC1CCCCC1
0.093	CCOc1nc(Nc2ccc(S(N)(=O)=O)cc2)nc(N)c1N=O
0.049	Nc1nc(Nc2ccc(S(N)(=O)=O)cc2)nc(OCC2CCCCC2)c1C=O
0.034	NC(=O)c1ccc(Nc2ncc(N=O)c(OCC3CCCCC3)n2)cc1
56.3	Nc1nc(N)c(-c2ccco2)c(OCC2CCCCC2)n1
0.34	COc1cccc(Nc2ncc(N=O)c(OCC3CCCCC3)n2)c1
0.0081	O=Nc1cnc(Nc2ccc(S(=O)(=O)NCC3CCCO3)cc2)nc1OCC1CCCCC1 (stereo not drawn)
0.0131	CC[C@@H](C)Oc1nc(Nc2ccc(S(N)(=O)=O)cc2)ncc1C=O
0.049	CCOc1nc(Nc2ccc(S(N)(=O)=O)cc2)nc(N)c1C=O
26	Brc1cccc(Nc2nccc(OCC3CCCCC3)n2)c1
0.033	N#CCc1cccc(Nc2nc(N)c(N=O)c(OCC3CCCCC3)n2)c1
0.5	O=Nc1cnc(Nc2cccc(Br)c2)nc1OCC1CCCCC1
61	N#Cc1c(N)nc(N)nc1OCC1CCCCC1
1.8	COc1ccc(Nc2nc(N)c(C=O)c(OC(C)C)n2)cc1
0.61	Nc1nc(Nc2ccc(C(=O)O)cc2)nc(OCC2CCCCC2)c1C=O
0.2	CCN(CC)C(=O)c1ccc(Nc2nc(N)c(N=O)c(OCC3CCCCC3)n2)cc1
8.3	Nc1nc(N)c([N+](=O)[O-])c(OCC2CCCCC2)n1
0.11	Nc1nc(Nc2ccc(C(=O)O)cc2)nc(OCC2CCCCC2)c1N=O
1.9	CCOc1nc(Nc2ccc(OC)cc2)nc(N)c1C=O
0.045	O=Nc1cnc(Nc2cccc(CO)c2)nc1OCC1CCCCC1
8.3	COc1ccc(Nc2nc(N)c(/C=N/O)c(OCC3CCCCC3)n2)cc1
0.086	CCN(CC)S(=O)(=O)c1ccc(Nc2ncc(N=O)c(OCC3CCCCC3)n2)cc1
24	N#CCc1ccc(Nc2nc(N)cc(OCC3CCCCC3)n2)cc1
55	Nc1nc(N)c(-c2cccs2)c(OCC2CCCCC2)n1
79	COc1nc(N)nc(N)c1N=O
0.4	CSc1cccc(Nc2nc(N)c(N=O)c(OCC3CCCCC3)n2)c1
0.117	Nc1nc(Nc2ccc(S(N)(=O)=O)cc2)nc(OCC2CCCCC2)c1/C=N/O
0.026	CC(C)Oc1nc(Nc2ccc(S(N)(=O)=O)cc2)nc(N)c1C=O
